Source: ChEMBL document CHEMBL4613323, “Factor H-Inspired Design of Peptide Biomarkers of the Complement C3d Protein” (ACS Med Chem Lett, 2020)

Biological target: Complement C3 (Homo sapiens, UniProt P01024)
Test: Binding affinity to recombinant human C3d assessed as dissociation constant incubated for 5 mins by microscale thermophoresis assay

Chain of Complement C3 (P01024 23-667 limits assumed): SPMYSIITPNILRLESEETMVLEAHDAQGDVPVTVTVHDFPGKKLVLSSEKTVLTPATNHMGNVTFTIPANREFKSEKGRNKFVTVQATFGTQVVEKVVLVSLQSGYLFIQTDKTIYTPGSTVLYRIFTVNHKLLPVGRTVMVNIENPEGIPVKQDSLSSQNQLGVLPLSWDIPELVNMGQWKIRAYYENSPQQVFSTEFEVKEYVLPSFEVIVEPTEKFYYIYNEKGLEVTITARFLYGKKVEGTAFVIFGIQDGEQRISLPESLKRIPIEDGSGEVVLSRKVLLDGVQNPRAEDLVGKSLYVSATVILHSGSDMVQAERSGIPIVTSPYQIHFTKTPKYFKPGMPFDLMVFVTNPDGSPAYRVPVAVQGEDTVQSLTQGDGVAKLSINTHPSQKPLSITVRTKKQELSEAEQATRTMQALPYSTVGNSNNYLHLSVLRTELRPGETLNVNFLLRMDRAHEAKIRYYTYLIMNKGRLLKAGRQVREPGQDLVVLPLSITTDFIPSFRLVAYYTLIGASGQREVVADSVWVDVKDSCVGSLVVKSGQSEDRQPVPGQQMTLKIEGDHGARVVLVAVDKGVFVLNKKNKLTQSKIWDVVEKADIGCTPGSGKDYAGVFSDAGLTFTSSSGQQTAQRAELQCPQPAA
Chain of Complement C3 (P01024 672-1663 limits assumed): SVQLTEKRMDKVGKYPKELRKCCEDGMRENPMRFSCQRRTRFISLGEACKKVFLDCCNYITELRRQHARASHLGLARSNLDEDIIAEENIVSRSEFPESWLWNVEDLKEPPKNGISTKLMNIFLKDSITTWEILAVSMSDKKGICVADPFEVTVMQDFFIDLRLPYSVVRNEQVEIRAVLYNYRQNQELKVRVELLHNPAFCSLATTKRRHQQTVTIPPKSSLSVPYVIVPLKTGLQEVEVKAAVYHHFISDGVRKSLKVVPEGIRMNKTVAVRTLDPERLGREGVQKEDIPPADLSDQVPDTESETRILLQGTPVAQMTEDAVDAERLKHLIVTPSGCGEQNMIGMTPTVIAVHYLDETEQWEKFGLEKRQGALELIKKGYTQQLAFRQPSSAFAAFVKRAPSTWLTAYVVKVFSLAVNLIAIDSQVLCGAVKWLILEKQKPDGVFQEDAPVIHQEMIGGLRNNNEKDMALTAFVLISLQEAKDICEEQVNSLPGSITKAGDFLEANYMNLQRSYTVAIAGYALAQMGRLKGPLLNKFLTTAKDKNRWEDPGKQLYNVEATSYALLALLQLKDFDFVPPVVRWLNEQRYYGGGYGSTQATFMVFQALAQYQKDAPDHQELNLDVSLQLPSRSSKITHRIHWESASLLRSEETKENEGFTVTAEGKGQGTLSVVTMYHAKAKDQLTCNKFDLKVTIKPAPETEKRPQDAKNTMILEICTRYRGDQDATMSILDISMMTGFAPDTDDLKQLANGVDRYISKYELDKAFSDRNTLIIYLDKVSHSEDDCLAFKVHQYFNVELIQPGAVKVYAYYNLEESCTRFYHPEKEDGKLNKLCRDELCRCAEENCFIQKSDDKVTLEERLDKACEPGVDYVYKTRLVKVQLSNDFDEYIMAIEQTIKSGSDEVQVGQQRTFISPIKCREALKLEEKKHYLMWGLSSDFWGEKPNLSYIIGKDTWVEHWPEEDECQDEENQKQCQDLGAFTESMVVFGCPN

Kd: 61.6 µM
SMILES: CC(=O)NCC(=O)N[C@H]1CSSC[C@@H](C(=O)NCC(N)=O)NC(=O)[C@H](CCCNC(=N)N)NC(=O)[C@H](Cc2ccc(O)cc2)NC(=O)CNC(=O)[C@H](CCCNC(=N)N)NC(=O)[C@H](CCCCN)NC1=O (stereo in doubt; form 2)
